Results published in ChEMBL document CHEMBL4321867, “Optimization of LpxC Inhibitor Lead Compounds Focusing on Efficacy and Formulation for High Dose Intravenous Administration” (J Med Chem, 2020).
Converted amounts (≈) assume the structure as drawn.

Legend:
in vitro [1] = conditions: rat, plasma
Enterobacter cloacae = test: microbe, parasite or virus in culture
Klebsiella pneumoniae [2] = test: microbe, parasite or virus in culture; conditions: T6474
Moraxella catarrhalis = test: microbe, parasite or virus in culture
Klebsiella pneumoniae [3] = test: microbe, parasite or virus in culture
physchem [4] = conditions: 5% mannitol/water, pH 8.4
in vivo [5] = conditions: Wistar, rat, iv, 10 mg/kg
Escherichia coli [6] = test: microbe, parasite or virus in culture
physchem [7] = conditions: buffer, pH 9
physchem [8] = conditions: buffer, pH 4
in vitro [9] = conditions: human, liver microsomes
Pseudomonas aeruginosa [10] = test: microbe, parasite or virus in culture; conditions: ATCC 27853
Citrobacter freundii = test: microbe, parasite or virus in culture
Klebsiella aerogenes = test: microbe, parasite or virus in culture
Serratia marcescens = test: microbe, parasite or virus in culture
Escherichia coli [11] = test: microbe, parasite or virus in culture; conditions: ATCC 25922
Pseudomonas aeruginosa [12] = test: microbe, parasite or virus in culture
Acinetobacter baumannii = test: microbe, parasite or virus in culture
Klebsiella oxytoca = test: microbe, parasite or virus in culture
Morganella morganii = test: microbe, parasite or virus in culture
physchem [13] = conditions: buffer, pH 7
[14] = system: Stenotrophomonas maltophilia; test: microbe, parasite or virus in culture
Haemophilus influenzae = test: microbe, parasite or virus in culture
Burkholderia cepacia = test: microbe, parasite or virus in culture
physchem [15] = conditions: n-octanol/phosphate buffer, pH 7.4
in vivo [16] = conditions: mouse, sc, 150 mg/kg
in vitro [17] = conditions: rat, hepatocytes
in vitro [18] = conditions: human, hepatocytes
in vitro [19] = conditions: rat, liver microsomes
Proteus mirabilis = test: microbe, parasite or virus in culture
physchem [20] = test: physchem
[21] = system: T1, UDP-3-O-acyl-N-acetylglucosamine deacetylase (Pseudomonas aeruginosa (strain ATCC 15692 / PAO1 / 1C / PRS 101 / LMG12228)), P47205 [C40S]; conditions: 25 uM
T1 sequence (whole entry): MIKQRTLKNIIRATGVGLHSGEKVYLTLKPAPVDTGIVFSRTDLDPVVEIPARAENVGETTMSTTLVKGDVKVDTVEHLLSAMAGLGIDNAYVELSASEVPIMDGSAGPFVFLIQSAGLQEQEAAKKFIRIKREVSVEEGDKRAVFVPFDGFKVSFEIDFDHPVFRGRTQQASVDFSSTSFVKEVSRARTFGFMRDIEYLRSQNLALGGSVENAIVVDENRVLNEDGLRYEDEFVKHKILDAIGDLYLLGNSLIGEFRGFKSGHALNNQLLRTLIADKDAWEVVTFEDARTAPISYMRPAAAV

[22] = system: T2, UDP-3-O-acyl-N-acetylglucosamine deacetylase (Escherichia coli K-12), P0A725 [C125S]; conditions: 25 uM
T2 sequence (whole entry): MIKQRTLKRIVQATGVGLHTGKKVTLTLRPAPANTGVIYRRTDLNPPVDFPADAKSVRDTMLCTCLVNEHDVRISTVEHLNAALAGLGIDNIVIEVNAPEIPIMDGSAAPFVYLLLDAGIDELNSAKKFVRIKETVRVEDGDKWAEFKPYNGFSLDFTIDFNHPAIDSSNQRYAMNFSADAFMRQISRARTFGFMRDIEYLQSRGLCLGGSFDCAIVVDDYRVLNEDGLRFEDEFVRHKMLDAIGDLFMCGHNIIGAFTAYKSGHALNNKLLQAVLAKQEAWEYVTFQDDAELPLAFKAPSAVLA

physchem [23] = conditions: 5% mannitol/water, pH 4.5

## C[C@@](CCN1Cc2cc(C#CC#C[C@@H]3C[C@@]3(F)CO)cn2C1=O)(C(=O)NO)S(C)(=O)=O
In vitro [1]
  fraction unbound at 1 µM: 0.017
Enterobacter cloacae
  MIC90: 4 µg/mL (≈ 8.86 µM)
Klebsiella pneumoniae [2]
  MIC: 0.5 µg/mL (≈ 1.11 µM)
Moraxella catarrhalis
  MIC90: > 16 µg/mL
Klebsiella pneumoniae [3]
  MIC90: 4 µg/mL (≈ 8.86 µM)
Physchem [4]
  solubility: 1000 µg/mL (≈ 2210 µM)
In vivo [5]
  clearance at 24 h: 5.2 mL/min/kg
Escherichia coli [6]
  MIC90: 2 µg/mL (≈ 4.43 µM)
Physchem [7]
  solubility at 24 h: > 760 µg/mL
Physchem [8]
  solubility at 24 h: 220 µg/mL (≈ 487 µM)
In vitro [9]
  microsomal CLint at 1 µM: < 10 µL/min/mg
Pseudomonas aeruginosa [10]
  MIC: 0.5 µg/mL (≈ 1.11 µM)
Citrobacter freundii
  MIC90: 1 µg/mL (≈ 2.21 µM)
Klebsiella aerogenes
  MIC90: 2 µg/mL (≈ 4.43 µM)
Serratia marcescens
  MIC90: 1 µg/mL (≈ 2.21 µM)
Escherichia coli [11]
  MIC: 0.25 µg/mL (≈ 0.554 µM)
Pseudomonas aeruginosa [12]
  MIC90: 2 µg/mL (≈ 4.43 µM)
Acinetobacter baumannii
  MIC90: > 16 µg/mL
Klebsiella oxytoca
  MIC90: 4 µg/mL (≈ 8.86 µM)
Morganella morganii
  MIC90: 0.5 µg/mL (≈ 1.11 µM)
Physchem [13]
  solubility at 24 h: 248 µg/mL (≈ 549 µM)
[14]
  MIC90: > 16 µg/mL
Haemophilus influenzae
  MIC90: ≤ 0.03 µg/mL
Burkholderia cepacia
  MIC90: 2 µg/mL (≈ 4.43 µM)
Physchem [15]
  logD: 0.9
In vivo [16]
  AUC(0-t) at 24 h: 236000 ng·h/mL
In vitro [17]
  hepatocyte CLint at 1 µM: 13 µL/min/1e6 cells
In vitro [18]
  hepatocyte CLint at 1 µM: < 2 µL/min/1e6 cells
In vitro [19]
  microsomal CLint at 1 µM: 12 µL/min/mg
Proteus mirabilis
  MIC90: 2 µg/mL (≈ 4.43 µM)

## C[C@@](CCN1Cc2cc(C#CC#CC3(N)CC3)cn2C1=O)(C(=O)NO)S(C)(=O)=O
In vitro [1]
  fraction unbound at 1 µM: 0.111
Klebsiella pneumoniae [2]
  MIC: 0.25 µg/mL (≈ 0.597 µM)
In vivo [5]
  clearance at 24 h: 29 mL/min/kg
In vitro [9]
  microsomal CLint at 1 µM: < 10 µL/min/mg
Pseudomonas aeruginosa [10]
  MIC: 0.5 µg/mL (≈ 1.19 µM)
Escherichia coli [11]
  MIC: 0.25 µg/mL (≈ 0.597 µM)
Physchem [20]
  pKa: 6.5
[21]
  deltaTm: 11.6 K
Physchem [15]
  logD: 0.7
In vivo [16]
  AUC(0-t) at 24 h: 44700 ng·h/mL
In vitro [17]
  hepatocyte CLint at 1 µM: 17 µL/min/1e6 cells
In vitro [18]
  hepatocyte CLint at 1 µM: < 2 µL/min/1e6 cells
In vitro [19]
  microsomal CLint at 1 µM: 14 µL/min/mg
[22]
  deltaTm: 10 K

## C[C@@H](O)[C@H]1C(=O)N2C(C(=O)O)=C(SCCNC=N)C[C@H]12 [IMIPENEM ANHYDROUS]
Enterobacter cloacae
  MIC90: 1 µg/mL (≈ 3.34 µM)
Moraxella catarrhalis
  MIC90: 0.06 µg/mL (≈ 0.2 µM)
Klebsiella pneumoniae [3]
  MIC90: > 16 µg/mL
Escherichia coli [6]
  MIC90: 0.25 µg/mL (≈ 0.835 µM)
Citrobacter freundii
  MIC90: 1 µg/mL (≈ 3.34 µM)
Klebsiella aerogenes
  MIC90: 2 µg/mL (≈ 6.68 µM)
Serratia marcescens
  MIC90: 1 µg/mL (≈ 3.34 µM)
Pseudomonas aeruginosa [12]
  MIC90: > 16 µg/mL
Acinetobacter baumannii
  MIC90: > 16 µg/mL
Klebsiella oxytoca
  MIC90: 0.5 µg/mL (≈ 1.67 µM)
Morganella morganii
  MIC90: 16 µg/mL (≈ 53.4 µM)
[14]
  MIC90: > 16 µg/mL
Haemophilus influenzae
  MIC90: 0.5 µg/mL (≈ 1.67 µM)
Burkholderia cepacia
  MIC90: > 16 µg/mL
Proteus mirabilis
  MIC90: 4 µg/mL (≈ 13.4 µM)

## C[C@@](CCN1Cc2cc(C#CC#CC3CN(CCF)C3)cn2C1=O)(C(=O)NO)S(C)(=O)=O
In vitro [1]
  fraction unbound at 1 µM: 0.067
Enterobacter cloacae
  MIC90: 1 µg/mL (≈ 2.15 µM)
Physchem [23]
  solubility: 25000 µg/mL (≈ 53800 µM)
Klebsiella pneumoniae [2]
  MIC: 0.25 µg/mL (≈ 0.538 µM)
Moraxella catarrhalis
  MIC90: > 16 µg/mL
Klebsiella pneumoniae [3]
  MIC90: 2 µg/mL (≈ 4.31 µM)
In vivo [5]
  clearance at 24 h: 38 mL/min/kg
Escherichia coli [6]
  MIC90: 0.25 µg/mL (≈ 0.538 µM)
Physchem [7]
  solubility at 24 h: > 780 µg/mL
Physchem [8]
  solubility at 24 h: > 780 µg/mL
In vitro [9]
  microsomal CLint at 1 µM: < 10 µL/min/mg
Pseudomonas aeruginosa [10]
  MIC: 0.5 µg/mL (≈ 1.08 µM)
Citrobacter freundii
  MIC90: 0.5 µg/mL (≈ 1.08 µM)
Klebsiella aerogenes
  MIC90: 1 µg/mL (≈ 2.15 µM)
Serratia marcescens
  MIC90: 0.25 µg/mL (≈ 0.538 µM)
Escherichia coli [11]
  MIC: 0.06 µg/mL (≈ 0.129 µM)
Physchem [20]
  pKa: 6.7
Pseudomonas aeruginosa [12]
  MIC90: 1 µg/mL (≈ 2.15 µM)
Acinetobacter baumannii
  MIC90: > 16 µg/mL
[21]
  deltaTm: 12.9 K
Klebsiella oxytoca
  MIC90: 0.125 µg/mL (≈ 0.269 µM)
Morganella morganii
  MIC90: 0.25 µg/mL (≈ 0.538 µM)
Physchem [13]
  solubility at 24 h: 247 µg/mL (≈ 532 µM)
[14]
  MIC90: > 16 µg/mL
Haemophilus influenzae
  MIC90: ≤ 0.03 µg/mL
Burkholderia cepacia
  MIC90: 4 µg/mL (≈ 8.61 µM)
Physchem [15]
  logD: 1
In vivo [16]
  AUC(0-t) at 24 h: 49100 ng·h/mL
In vitro [17]
  hepatocyte CLint at 1 µM: 15.4 µL/min/1e6 cells
In vitro [18]
  hepatocyte CLint at 1 µM: < 2 µL/min/1e6 cells
In vitro [19]
  microsomal CLint at 1 µM: > 1250 µL/min/mg
Proteus mirabilis
  MIC90: 0.5 µg/mL (≈ 1.08 µM)
[22]
  deltaTm: 10.6 K

## CN(C)c1cc(NC(=O)CNC(C)(C)C)c(O)c2c1C[C@H]1C[C@H]3[C@H](N(C)C)C(O)=C(C(N)=O)C(=O)[C@@]3(O)C(O)=C1C2=O [TIGECYCLINE]
Enterobacter cloacae
  MIC90: 4 µg/mL (≈ 6.83 µM)
Moraxella catarrhalis
  MIC90: 0.5 µg/mL (≈ 0.854 µM)
Klebsiella pneumoniae [3]
  MIC90: 4 µg/mL (≈ 6.83 µM)
Escherichia coli [6]
  MIC90: 1 µg/mL (≈ 1.71 µM)
Citrobacter freundii
  MIC90: 1 µg/mL (≈ 1.71 µM)
Klebsiella aerogenes
  MIC90: 1 µg/mL (≈ 1.71 µM)
Serratia marcescens
  MIC90: 2 µg/mL (≈ 3.41 µM)
Pseudomonas aeruginosa [12]
  MIC90: > 16 µg/mL
Acinetobacter baumannii
  MIC90: 16 µg/mL (≈ 27.3 µM)
Klebsiella oxytoca
  MIC90: 0.5 µg/mL (≈ 0.854 µM)
Morganella morganii
  MIC90: 8 µg/mL (≈ 13.7 µM)
[14]
  MIC90: 4 µg/mL (≈ 6.83 µM)
Haemophilus influenzae
  MIC90: 0.25 µg/mL (≈ 0.427 µM)
Burkholderia cepacia
  MIC90: > 16 µg/mL
Proteus mirabilis
  MIC90: 4 µg/mL (≈ 6.83 µM)
